# Laboratory results: US9636317B2, “Compositions and methods of use of phorbol esters” (priority 2007, dated 2017)
# Legend:
# HIV = settings: cited from earlier work
# primary AML = settings: pharmacological interruption of ERK signaling; cited from earlier work
# primary AML cells = assay: Primary AML cultures ex vivo: cell viability, apoptosis assays and Western analysis of ERK; format: cell-based, human; settings: primary AML samples
# Description: In addition to protein kinase C and ERK activation, TPA is a known inducer of NF-κB, a pro-survival transcription factor often constitutively active in AML blasts and leukemic stem cells.
# [1] = most polar organic solvents and water; cited from earlier work
smiles,measurement,setting,value
"CC(=O)O[C@@]12C[C@@H](C)[C@@]3(O)[C@@H](C=C(CO)C[C@]4(O)C(=O)C(C)=C[C@@H]34)[C@@H]1C2(C)C [Prostratin, 12-deoxyphorbol 13-acetate]",HIV induced cell killing and viral replication,HIV,some effectiveness for inhibiting HIV induced cell killing and viral replication
same,effect on chronically-infected cell lines,HIV,little or no effect on chronically-infected cell lines
same,viral expression in latently-infected cell lines,HIV,activated viral expression in latently-infected cell lines
COc1cccc(-c2cc(=O)c3ccccc3o2)c1N [PD98059],primary AML survival,primary AML,decreased primary AML survival
"C[C@@H]1C[C@H]2[C@@H]3CCC4=CC(=O)C=C[C@]4(C)[C@@]3(F)[C@@H](O)C[C@]2(C)[C@@]1(O)C(=O)CO [dexamethasone, reference compound]",effect on TPA cytotoxicity,primary AML cells,enhance TPA cytotoxicity
CC1=C[C@H]2[C@@]3(O)[C@H](C)[C@@H](O)[C@]4(O)[C@H]([C@@H]3C=C(CO)C[C@]2(O)C1=O)C4(C)C [Phorbol],solubility,[1],well soluble in most polar organic solvents and in water
N#CC(=C(/N)Sc1ccccc1N)/C(C#N)=C(\N)Sc1ccccc1N [U0126],primary AML survival,primary AML,decreased primary AML survival
O=C(NOCC1CC1)c1ccc(F)c(F)c1Nc1ccc(I)cc1Cl [PD 184352],primary AML survival,primary AML,decreased primary AML survival
